Assay results: US20250304610A1, “TREHALOSE-BASED SURFACTANTS” (priority 2022, published 2025)

What was measured:
antibody = experiment: Antibody aggregation assessed by DLS after freeze-drying and storage; type: physicochemical; settings: antibody 1 mg/mL, reconstituted with MilliQ water
Experimental: 500 uL of 1 mg/mL antibody formulations were placed in a vial prior to deep-freeze in liquid nitrogen. The frozen samples were placed directly in the freeze-dryer. After 24 hr, the lyophilized samples were stored in a fridge at 4° C. for 7 or 28 days. The sample were then reconstituted with addition of MilliQ® water before assessing their stability by DLS and cell binding assays.
The aggregation of antibody was assessed by dynamic light scattering (DLS) operating at 25° C. The measurements were done at different timepoints during storage at […] and right after nebulization.
The mean hydrodynamic diameter by intensities of the monomer was distributed at d=10 nm while aggregates was distributed at a d >10 nm.
The addition of 5.6 mM C16Tre1S and C8Tre1S trehalose surfactants as cryoprotectant was assessed on 1 mg/mL antibody formulations. The samples were first deep-frozen in liquid nitrogen before drying for 24 hr. The lyophilized samples were stored in a fridge for 0, 7 or 28 days before reconstitution with addition of MilliQ® water. The conformation and functionality of antibody after the process were assessed by DLS and cell binding assays respectively. The results were compared to antibody formulated in PBS only and formulated with standard cryoprotectants such as trehalose (5 wt % and 5.6 mM) and Tween 80 (5.6 mM).

[1] = tested on: SARS-CoV-2 spike-expressing HEK293 cells; type: cell-based

Compound	antibody aggregation after freeze-drying (DLS) (antibody; excipient 5.6 mM)	antibody binding to Spike protein after nebulization of the reconstituted formulation [1]	antibody binding to spike-expressing HEK293 cells after lyophilization (fluorescence signal) [1]	antibody aggregation after freeze-drying (DLS) (antibody; excipient 5 wt %)
CCCCCCCC/C=C\CCCCCCCC(=O)OCCOCC(OCCO)C1OCC(OCCO)C1OCCO (stereo not drawn) [Tween 80]	Comparable results	at the same level as before nebulization	Comparable results	
OC[C@H]1O[C@H](O[C@H]2O[C@H](CO)[C@@H](O)[C@H](O)[C@H]2O)[C@H](O)[C@@H](O)[C@@H]1O [Trehalose]	aggregations were observed		significant decrease of antibody binding	Comparable results
